Measurements from paper PMC11124525, “Pharmacokinetic–Pharmacodynamic Correlation Analysis of Rhodiola crenulata in Rats with Myocardial Ischemia” (Pharmaceuticals, 2024).
Like-named read-outs stand apart in the source and are kept apart here.

Columns and labels:
[1] = myocardial infarction induced by isoproterenol; cited from earlier work
[2] = PK of five RC components in sham operation administration (SDG, normal) rats after oral RC extract, HPLC-QQQ-MS/MS, DAS; assay type: in vivo, SD rats; settings: SD, rat, in vivo, po, 2 g/kg
Method: (§1) The drug concentration in plasma was calculated using the standard curve, and the mean blood concentration was plotted against the time to obtain the mean blood concentration–time curve (Figure 4).
(§2) The rat model of MI was made with Pit. The rats were divided into a sham operation group (SG), sham operation administration group (SDG), model group (MG), and model administration group (MDG) (n = 6 for each group). The MI model was prepared via an intraperitoneal injection (a single time) of Pit in the MG and MDG, with a dosage of 20 U/kg and a volume of 10 mL/kg. At the same time, the rats in the SG and SDG groups were given the same volume of saline in the same way.
(§3) RC extract (2 g/kg, equivalent to human clinical equivalent dose) was given to rats via oral administration in SDG and MDG, and the same volume of normal saline was orally administered to the SG and MG. Rats were fasted for 12 h before the experiment. Blood was collected from the fundus venous plexus at 0, 5, 10, 15, 30, 45 min, 1, 2, 4, 6, 8, 12, and 24 h after in gavage, placed in a centrifuge tube impregnated with heparin sodium, centrifuged at 3500 rpm for 15 min, and then the plasma was collected and divided into two parts. One part was used for biochemical index determination and the other part was used to determine the content of pharmaceutical ingredients in vivo. After the experiment, the rats were sacrificed, and the hearts were placed in paraformaldehyde for histopathological analysis.
(§4) The plasma sample of 100 μL was accurately absorbed, 50 μL internal standard solution (Nimodipine, 500 ng/mL) was added, then 300 μL acetonitrile precipitated protein was added, vortex for 10 min, placed under ultrasound for 3 min, centrifuged at 13,000 rpm for 10 min, and then the supernatant was transferred to another centrifuge tube. It was then concentrated until dry with a rotary evaporator. The residue was redissolved with 100 μL 50% acetonitrile, swirled for 1 min, placed under ultrasonic for 3 min, centrifuged at 13,000 rpm for 10 min, and the supernatant was taken for analysis.
(§5) A validated HPLC-QQQ-MS/MS method was used for the determination of drug-derived components in plasma samples at different time points. The accompanying standard curve was substituted to calculate the content of the compounds to be measured, and then the PK parameters were calculated using DAS software (version 3.2.8), and the blood concentration–time curve was plotted using GraphPad Prism (version 8.0.2). PK behavior was compared between the sham operation and model group, and PK models were established, respectively.

CK = assay: PK-PD sigmoid-Emax model, PD index CK in MDG rats; assay type: in vivo, SD rats; parameters: Emax: unit not given beside the values
[3] = for Stability RE (%): rat plasma, n = 6
Method: A series concentration mixed reference solution with different concentrations was added to 100 μL plasma, and was treated according to the method under Section 4.6 to obtain the matrix standard curve sample. Samples with concentrations of 400, 100, and 10 ng/mL, respectively, were taken as quality control (QC) samples of high, medium, and low concentrations (HQC, MQC, LQC). The method was validated, including linearity, inter-day/intra-day precision, repeatability, stability, extraction recovery, and matrix effect, according to FDA bioanalytical method validation guidelines.

HBDH = assay: PK-PD sigmoid-Emax model, PD index HBDH in MDG rats; assay type: in vivo, SD rats; parameters: unit not given beside the values
LDH = assay: PK-PD sigmoid-Emax model, PD index LDH in MDG rats
From the text: Subsequently, we incorporated the PK and PD data to conduct PK-PD modeling through DAS.
Therefore, PK-PD correlation analysis was used in this study, linking dynamic concentration–time processes and effect–time profile relationships [20, 21, 22]. […] The model adopted in this study is the S-Emax model. In the equation, γ means the shape factor in the formula, affecting the slope and determining the steepness of the curve. Emax can provide the maximum response intensity, and ED50 is for evaluating the safety of the drug, which is understood as the amount of the drug that causes 50% of the maximum response intensity.
Plasma creatine kinase (CK), hydroxybutyrate dehydrogenase (HBDH), lactate dehydrogenase (LDH), and superoxide dismutase (SOD) activity was determined using an automatic biochemical analyzer.
The activity of the CK, HBDH, LDH, and SOD of plasma samples collected at different time points was determined using an automatic biochemical analyzer for PD index evaluation. […] Two compartmental methods were used, employing the drug and statistics, which was supplied by the Chinese Pharmacological Society. Then, the efficacy indicators were fitted in the PK-PD model.

[4] = PK of five RC components in pituitrin-induced myocardial ischemia (MDG) rats after oral RC extract, HPLC-QQQ-MS/MS, DAS; assay type: in vivo, SD rats; settings: SD, rat, in vivo, po, 2 g/kg
Method: as §1, §2, §3, §4, §5

AST = assay: PK-PD sigmoid-Emax model, PD index AST in MDG rats; assay type: in vivo, SD rats; parameters: unit not given beside the values
SOD = assay: PK-PD sigmoid-Emax model, PD index SOD in MDG rats; assay type: in vivo, SD rats; parameters: Ke0: unit not given beside the values

Which results are given for `O=C(O)c1cc(O)c(O)c(O)c1` [Gallic Acid, gallic acid]?
CLZ/F in modeled rats vs normal rats [1]: significantly decreased; T1/2 and MRT in modeled rats vs normal rats [1]: prolonged; AUC(0-inf) [2]: 550 ± 169 ng·h/mL; AUC(0-t) [2]: 475 ± 112 ng·h/mL; CL/F [2]: 165 mL/min/kg; Cmax [2]: 103 ± 16.2 ng/mL; MRT [2]: 4.32 ± 1.26 h; MRT inf [2]: 8.92 ± 5.98 h; Tmax [2]: 0.92 ± 0.13 h; Vd/F [2]: 116 ± 83.1 L/kg; half-life [2]: 10.2 ± 8.73 h; Emax (CK): 2290.745; Ke0 (CK): 1.909; Stability RE (%) ([3]; 4 °C, 48 h, spiked 10 ng/mL): 100.2%; Stability RE (%) ([3]; 4 °C, 48 h, spiked 50 ng/mL): 103.3%; Stability RE (%) ([3]; 4 °C, 48 h, spiked 400 ng/mL): 99.11%; Stability RE (%) ([3]; three freeze–thaw cycles, spiked 10 ng/mL): 98.58%; Stability RE (%) ([3]; three freeze–thaw cycles, spiked 50 ng/mL): 105.6%; Stability RE (%) ([3]; three freeze–thaw cycles, spiked 400 ng/mL): 90.26%; Stability RE (%) ([3]; −80 °C, 10 days, spiked 10 ng/mL): 99.77%; Stability RE (%) ([3]; −80 °C, 10 days, spiked 400 ng/mL): 96.65%; Stability in plasma samples (in words) ([3]; simulated sample storage, handling and analysis (48 h at 4 °C and 10 days in 3 freeze–thaw cycles)): stable; Emax (HBDH): 3540.625; Ke0 (HBDH): 0.439; Emax (LDH): 580.413; AUC(0-inf) [4]: 664 ± 221 ng·h/mL; AUC(0-t) [4]: 531 ± 60.9 ng·h/mL; CL/F [4]: 136 mL/min/kg; Cmax [4]: 130 ± 19.9 ng/mL; MRT [4]: 5.53 ± 0.59 h; MRT inf [4]: 13.6 ± 10.6 h; Vd/F [4]: 134 ± 68.9 L/kg; half-life [4]: 13.8 ± 10.9 h; Tmax ([4]; Tmax): 0.92 ± 0.13 h; Tmax ([4]; Tmax (approximate)): ~1 h; Emax (AST): 1375.057; Ke0 (AST): 2.998; Emax (SOD): 73.435; Ke0 (SOD): 0.022
